# How the values were obtained:
# Format in all cases: cell-based, human
# [1] = system: c-Abl; assay: Nuclear and cytosolic c-Abl in ZR-75-1/vector and ZR-75-1/MUC1siRNA cells after CDDP (fractionation, immunoblot)
# Excerpt: Cell culture. Human HeLa cervical cancer cells, HCT116/vector (HCT116 colorectal carcinoma cells stably transfected with an empty vector), HCT116/MUC1 (HCT116 colorectal carcinoma cells stably transfected with an expression vector encoding a MUC1 polypeptide), HCT116/MUC1(Y46F) (HCT116 colorectal carcinoma cells stably transfected with an expression vector encoding a mutant MUC1 polypeptide containing an amino acid substitution at position 46 changing a tyrosine (Y) to phenylalanine (F)) colon cancer cells (Ren et al., (2002) J. Biol. Chem. 277: 17616-17622) and 293 cells were cultured in Dulbecco's modified medium with 10% heat-inactivated fetal bovine serum, 100 units/ml penicillin, 100 μg/ml streptomycin and 2 mM L-glutamine. Human ZR-75-1/vector (ZR-75-1 breast cancer cells stably transfected with an empty vector) and ZR-75-1/MUC1siRNA (ZR-75-1 breast cancer cells stably transfected with an expression vector encoding an siRNA specific for MUC1) breast cancer cells (Ren et al., (2004) Cancer Cell 5:163-175) were grown in RPMI1640 medium containing 10% heat-inactivated fetal bovine serum and antibiotics. Cells were treated with 1 μM adriamycin (ADR; Calbiochem), 100 μM cisplatin (CDDP; Sigma) or 10 μM STI571 (Gleevec; Novartis, Basel, Switzerland).
# Subcellular fractionation. Nuclear fractions were prepared as described (Kharbanda et al., (1996) Cancer Res. 56:3617-3621). Cytosolic fractions were prepared as described (Hill et al., (2004) EMBO J. 23:2134-2145). Cell membrane fractions were prepared with the Plasma Membrane Extraction Kit (BioVision Research Products, Mountain View, Calif.). Mitochondria were purified as described (Ren et al., (2004) Cancer Cell 5:163-175; Ren et al., (2006) Oncogene 25:20-31).
# Immunoprecipitations and immunoblot analysis. Cell lysates were prepared as described (Kharbanda et al., (1995) Nature 376:785-788); Yoshida et al., (2005) Nat. Cell Biol. 7:278-285). […] Intensity of the signals was determined by densitometric scanning. Statistical significance was determined by the Student's t-test.
# [2] = system: c-Abl; assay: Analysis of c-Abl kinase activity (anti-c-Abl immunoprecipitates, Crk(120-225), [γ-32P]ATP); conditions: HCT116 cells; CDDP, 1 hour
# Protocol: Analysis of c-Abl kinase activity. Nuclear lysates were immunoprecipitated with anti-c-Abl (K-12) antibodies as described (Kharbanda et al., (1997) Nature 386:732-735). The precipitates were resuspended in kinase buffer (20 mM HEPES, pH 7.4, 10 mM MgCl2) containing [γ-^32P]ATP, GST-Crk(120-225) for 20 minutes at 30° C. The reaction products were analyzed by SDS-PAGE and autoradiography.
# [3] = system: MUC1 and c-Abl; assay: Co-immunoprecipitation of c-Abl with MUC1 (anti-MUC1-N precipitates) after CDDP; conditions: HCT116/MUC1 cells; CDDP, 1, 2 and 4 hours
# Protocol: Immunoprecipitations and immunoblot analysis. Cell lysates were prepared as described (Kharbanda et al., (1995) Nature 376:785-788); Yoshida et al., (2005) Nat. Cell Biol. 7:278-285). Soluble proteins were incubated with anti-MUC1-N (Kufe et al., (1984) Hybridoma 3:223-232), anti-MUC1-C (Ab5; Neomarker, Montreal, Quebec), anti-Flag (Sigma, St. Louis, Mo.), anti-c-Abl (Ab3; Oncogene, San Diego, Calif.) or anti-14-3-3 (Abcam Inc., Cambridge, Mass.) antibodies for 2 hours at 4° C., followed by precipitation with protein G-Sepharose beads for 1 hour. Immune complexes and cell lysates (50 μg) were subjected to immunoblot analysis with anti-MUC1-N, anti-MUC1-C, anti-c-Abl (Calbiochem, San Diego, Calif.), anti-lamin B (Oncogene, San Diego, Calif.), anti-IκBα (Santa Cruz Biotechnology, Santa Cruz, Calif.), anti-GFP (BD Biosciences, San Jose, Calif.), anti-Flag (Sigma, St. Louis, […].), anti-β-actin (Sigma, St. Louis, Mo.), anti-phospho-c-Abl-[…] (Cell Signaling Technology), anti-14-3-3 (Santa Cruz Biotechnology, Santa Cruz, Calif.), anti-PKC5 (Santa Cruz Biotechnology), anti-HSP60 (BD Biosciences, San Jose, Calif.), anti-PCNA (Oncogene), or anti-calnexin (Stressgen, San Diego, Calif.) antibodies. […] Intensity of the signals was determined by densitometric scanning. Statistical significance was determined by the Student's t-test.
smiles,measurement,setting,value
"[NH2][Pt]([NH2])([Cl])[Cl] [CDDP, cisplatin]",cytosolic c-Abl,[1]; ZR-75-1/MUC1siRNA cells,decreased
same,increase of nuclear targeting of c-Abl,"[1]; ZR-75-1/MUC1siRNA cells silenced for MUC1, 2 and 4 hours",about 6 fold
same,nuclear targeting of c-Abl,"[1]; ZR-75-1/vector cells, 2 and 4 hours",no detectable targeting of c-Abl to the nucleus
same,c-Abl kinase activity,[2],induction of c-Abl activity
same,binding of MUC1 with c-Abl,[3],increased binding of MUC1
